Measurements as given in PubChem BioAssay (NCI).
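The compound was tested at five concentrations on cells cultured in 96-well plates, with a 48-hour exposure period. At the GI50, growth is halved. TGI: total growth inhibition.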

What was measured:
Test in all cases: inhibition of tumour cell growth, NCI panel, 48 h
SK-MEL-2 melanoma = tested on: SK-MEL-2 melanoma
UACC-257 melanoma = tested on: UACC-257 melanoma
SF-295 CNS = tested on: SF-295 CNS
786-0 renal = tested on: 786-0 renal
K-562 leukemia = tested on: K-562 leukemia
LOX IMVI melanoma = tested on: LOX IMVI melanoma
SNB-75 CNS = tested on: SNB-75 CNS
NCI-H226 lung = tested on: NCI-H226 lung
EKVX NSCLC = tested on: EKVX NSCLC

| Structure (SMILES) | TGI (SK-MEL-2 melanoma) [µM] | TGI (UACC-257 melanoma) [µM] | TGI (SF-295 CNS) [µM] | TGI (786-0 renal) [µM] | TGI (K-562 leukemia) [µM] | TGI (LOX IMVI melanoma) [µM] | TGI (SNB-75 CNS) [µM] | TGI (NCI-H226 lung) [µM] | TGI (EKVX NSCLC) [µM] | GI50 (SK-MEL-2 melanoma) [µM] | GI50 (UACC-257 melanoma) [µM] | GI50 (SF-295 CNS) [µM] | GI50 (786-0 renal) [µM] | GI50 (K-562 leukemia) [µM] | GI50 (SNB-75 CNS) [µM] | GI50 (NCI-H226 lung) [µM] | GI50 (EKVX NSCLC) [µM] | GI50 (LOX IMVI melanoma) [µM] |
| --- | --- | --- | --- | --- | --- | --- | --- | --- | --- | --- | --- | --- | --- | --- | --- | --- | --- | --- |
| C=C[C@@H](C)[C@]1(C(=O)OC)CCCC12OCCO2 | > 100 | > 100 | > 100 | > 100 | > 100 | > 100 | > 100 | > 100 | > 100 |  |  |  |  |  |  |  |  |  |
| CCCCCCCCCCCCCCCC1=NCC[N+]1(CCO)CCO | 10.3 | 20.7 | 26.3 | 3 | 2.82 |  | 16.6 | 12.3 | 32.4 | 2.89 | 6.48 | 10.5 | 1.64 | 1.36 | 2.47 | 3.17 | 10.2 |  |
| O=C(CCC(=O)Nc1ccc(Cl)c(Cl)c1)Cc1nc2ccccc2o1 | > 100 | > 100 | > 100 | > 100 | > 100 | > 100 | > 100 | > 100 | > 100 |  |  |  |  |  |  |  |  |  |
| CSc1ccc2c(cc1=O)[C@@H](NC(=O)c1cccc([N+](=O)[O-])c1)CCc1cc(O)c(O)c(O)c1-2 | > 100 | > 100 | > 100 | > 100 | 77.6 | 32.2 | 86.1 | 57.9 | > 100 |  |  |  |  |  |  |  |  |  |
| Cc1cnc2ccc(C)c([N+](=O)[O-])c2c1NCCCN(C)C | > 100 | > 100 | > 100 | > 100 | > 100 | > 100 |  | > 100 | > 100 |  |  |  |  |  |  |  |  |  |
| Cc1c(C)c2ccc3oc4ccccc4c3c2oc1=O |  | > 100 | > 100 | > 100 | > 100 | > 100 | > 100 | > 100 | > 100 |  |  |  |  |  |  |  |  |  |
| Cc1ccc(C)c(N2C(=O)C(=O)C(c3nc4ccccc4s3)/C(=N/N)C2=O)c1 (configuration not stated) | > 100 | > 74.5 | > 33.5 | > 100 | > 100 | > 100 | > 100 | > 100 | > 100 |  |  |  |  |  |  |  |  |  |
| CCOC(OC(C)=O)[C@@H]1C=C[C@H](C)N(c2ccc([N+](=O)[O-])cc2)O1 (some centres not stated) | 13.5 | 26.9 | 27.4 | 7.23 | > 26.7 | 4.12 | 25.9 | 14 | 39 |  |  |  |  |  |  |  |  |  |
| COc1cc2cc(OC(C)=O)c3cc4c(cc3c2c(OC)c1OC)OCO4 | > 100 | > 100 | > 100 | > 100 | > 100 | > 100 | > 100 | > 100 | > 100 |  |  |  |  |  |  |  |  |  |
| COC(=O)c1cc2c(=O)n(C)c3ccccc3n2c1C(=O)OC | > 100 | > 100 | > 100 | 50.3 | > 100 | > 100 | 37.3 | 81.2 | 78.2 |  |  |  |  |  |  |  |  |  |
| CN(CCS(=O)(=O)N1C(=O)C2CCCN2C(=O)[C@@H]1Cc1ccccc1)C(=O)OCc1ccccc1 (some centres not stated) |  | > 100 | > 100 | > 100 | > 100 | > 100 | > 100 | > 100 | > 100 |  |  |  |  |  |  |  |  |  |
| O=C1C=C(Nc2ccc(Cl)cc2Cl)c2ccccc2C1=O | 60.8 | > 100 | > 100 | > 100 | > 100 |  | 70.4 | 87.2 | > 100 |  |  |  |  |  |  |  |  |  |
| N#C/C(=C\c1cc(O)cc(O)c1)C(N)=O | > 100 | > 100 | > 100 | > 100 | > 100 |  | > 100 | > 100 | > 100 |  |  |  |  |  |  |  |  |  |
| C[C@@H](Oc1cc(-n2cnc3ccc(OC4CCN(C)CC4)cc32)sc1C(N)=O)c1ccccc1Cl |  | 5.4 | 4.34 | 3.48 | 4.9 | 3.69 | 2.89 | 5.49 |  |  | 0.0249 | 0.0207 | 0.0951 | 0.0102 | 0.0614 | 0.289 |  | 0.0146 |
| COC1CCC(OS(C)(=O)=O)C(CO)O1 (configuration not stated) | > 100 | > 100 | > 100 | > 100 | > 100 | > 100 | > 100 |  | > 100 |  |  |  |  |  |  |  |  |  |
| NNC(=O)C(=O)N/N=C(\CCCC(=O)Nc1ccc(Cl)cc1)CC(=O)c1ccc(F)cc1 | > 100 | > 100 | > 100 | > 100 |  | > 100 | > 100 | > 100 | > 100 |  |  |  |  |  |  |  |  |  |
| O=C(/C=C\c1ccccc1O)c1ccc(O)cc1O | > 100 | > 100 | > 100 | > 100 | > 100 | > 100 |  | > 100 | > 100 |  |  |  |  |  |  |  |  |  |
| CC1(C)OC2C(CCP(=O)(O)O)OC(c3nc(C(N)=O)cs3)C2O1 (configuration not stated) | > 100 | > 100 |  | > 100 | > 100 | > 100 | > 100 | > 100 | > 100 |  |  |  |  |  |  |  |  |  |
| CC1=N/C(=C/c2ccc3c(c2)OCO3)C(=O)O1 | > 100 | > 100 |  | > 100 | > 100 | > 100 | > 100 |  | > 100 |  |  |  |  |  |  |  |  |  |
